Where “and” joins values, the source holds several entries; their conditions need not be identical. Identical values can stand only once. Like-named read-outs stand apart in the source and are kept apart here.
Tests used:
cluster headaches = details: cited from earlier work
migraine [1] = assay: Retrospective chart review of migraine treatment efficacy in 20 headache clinic patients; type: in vivo, human; parameters: concentration or dose not given beside the values; details: topiramate alone, monotherapy for at least 6 weeks; one line per patient at the indicated daily dosage
Method: (§1) In a headache clinic, 20 patients suffering from migraine are treated with a dosage of topiramate and then an additional, secondary therapeutic component comprising one of the following therapeutic agents, or mixture of agents: 1) a commercially available combination tablet sold under the name Migrelief® dietary supplement contains puracol feverfew extract (comprising partheolide), magnesium citrate/oxide (1:1), and riboflavin; and 2) a second medicine having the trade name Migravent® natural supplement containing butterbur extract (including petasin and isopetasin), and a blend of riboflavin, magnesium and coenzyme Q10; these combined ingredients are present in a “proprietary blend” of 876 mg.
(§2) In twenty patients suffering from migraine the effect of augmentation of topiramate treatment was formally documented. […] Patients were treated in combination therapy with topiramate and the indicated second agent for 6 weeks before side effect and efficacy data were obtained for comparison with the monotherapy data. Dosages of the second therapeutic component was as follows: Migravent: 150 mg pyrrolizidine alkaloids (PA) free) and 876 mg (Riboflavin, Magnesium, Co-enzyme Q-10 [propriety blend]); Migralief: Magnesium citrate and oxide 360 mg, riboflavin 400 mg and Puracol Feverfew (Tanacetum parthenium). […]

migraine [2] = assay: as above; type: in vivo, human; parameters: key: 1: no measurable efficacy; 2: some measurable difference in severity and or frequency of headache; 3: modest improvement in severity or frequency of headache; 4: headache frequency improvement either 50% or greater in frequency, severity or both; details: topiramate alone, monotherapy for at least 6 weeks; one line per patient at the indicated daily dosage
Method: as §1, §2

migraine [3] = details: cited from earlier work; for reduction of migraine incidents vs. placebo: 50 mg/day or less
[4] = Retrospective chart review of topiramate side effect profile in 20 migraine patients; type: in vivo, human; parameters: key: 1: mild or none; 2: tolerable, not treatment limiting; 3: warrants trial of topiramate dose reduction; 4: considering stopping topiramate treatment strongly; details: topiramate alone, monotherapy for at least 6 weeks; one line per patient at the indicated daily dosage
[5] = cited from earlier work
Leishmania amazonensis = details: cited from earlier work
[6] = system: acute myelogenous leukemia cells; details: normal bone marrow cells relatively unscathed; cited from earlier work

Compound	rapid relief of cluster headaches (cluster headaches; 50, 100, or 125 mg/day)	time to control the cluster headaches (cluster headaches; daily delivery in the 50-125 mg range)	Efficacy (migraine [1])	Efficacy (migraine [2])	reduction of migraine incidents vs. placebo (migraine [3])	reduction of migraine incidents vs. placebo (migraine [3]; listed as toprimate)	Side Effects (migraine [3]; 100 mg or more per day)	prophylactic effect versus placebo (migraine [3]; 100 mg per day or greater)	patients reporting an increase in migraine and other headaches (migraine [3]; human, in vivo) [%]	reduction of migraine frequency (migraine [3]; patients having an average of 5.5 migraine per month, placebo: one headache per month)	Side Effects [4]	solubility in water [5]	activity against Leishmania amazonensis (Leishmania amazonensis)	effect on acute myelogenous leukemia cells [6]
2,3:4,5-Di-O-isopropylidene-β-D-fructopyranose sulfamate [Topiramate]	inadequate in providing rapid relief	1-3 weeks	4 (headache frequency improvement either 50% or greater in frequency, severity or both)	2 (9×) and 3 (8×)	no statistical significance	did not show statistically significant efficacy	significant unacceptable side effects	statistically significant prophylactic effects	> 1	about 2 headaches per month	1 (4×) and 4 (8×) and 3 (6×) and 2 (2×)			
C=C1C(=O)O[C@H]2[C@H]1CC/C(C)=C/CC[C@@]1(C)O[C@@H]21 [Parthenolide]												limited solubility in water	active against the parasite Leishmania amazonensis	destroy acute myelogenous leukemia cells by inducing apoptosis

Reference: patent US20110117070A1, “COMPOSITIONS AND METHODS FOR TREATING HEADACHE” (priority 2005, published 2011)
